Results on three compounds are retold here after patent US11786540B2, “Gliflozins and a method for their delivery during resuscitation from cardiac arrest to improve survival outcomes” (Rosalind Franklin University of Medicine and Science, priority 2020, dated 2023).

Series [1] concerns open-chest swine model of VF. In words: open-chest swine model of electrically-induced VF and simulated CPR using extracorporeal circulation. It counts as in vivo. As to the method:
The studies were conducted in an open-chest swine model of electrically-induced VF and simulated CPR with controlled coronary blood flow (CBF) using extracorporeal circulation (ECC).^13,14 With a high degree of precision, the ECC model allowed subjecting the myocardium to low-flow reperfusion (as CPR does) after a period of ischemia during untreated VF (as it typically occurs in patients). The model reproduces adverse myocardial effects observed during CPR including increased myocardial wall thickness that is consistently ameliorated by NHE-1 inhibition. In addition, the model also reproduces post-resuscitation myocardial dysfunction which is also ameliorated by NHE-1 inhibition. In addition, the open-chest model allows for direct assessment of the myocardium via a micro-tip pressure transducer in the left ventricle to measure left ventricular pressure with high fidelity; a flow probe around the left anterior descending coronary artery to measure coronary blood flow as a surrogate of total myocardial blood flow; ultrasonic piezoelectric crystals to continuously measure the diameter (short-axis) and wall thickness of the left ventricle at the level of the mitral valve; and echocardiography to measure left ventricle volumes and wall thickness through a 4-chamber and 2-chamber views of the heart.
Therefore, we chose an EMPA dose expected to achieve a blood concentration of 1 μM after initial blood volume distribution in our swine model of VF and resuscitation by ECC. For this purpose, a stock solution was first prepared by dissolving 90.2 mg of EMPA (Sigma, St. Louis, Mo., MW 450.92) in 10 ml of 100% DMSO to obtain a 20 mM solution. This stock solution was diluted in saline to 200 μM. Given an estimated blood volume of 2.5 L for a 40-kg pig, 2.5 μmoles (i.e., 12.5 ml of the 200 μM solution) were given in bolus dose to attain the target blood concentration of 1 μM EMPA after initial blood volume distribution. […] Control pigs received 12.5 ml of 0.9% NaCl.
The bolus of EMPA or control solution was given at minute 9 of untreated VF through the venous port of the extracorporeal circuit. VF was maintained untreated for 10 minutes. ECC was then initiated and maintained for an additional 16 minutes. The ECC flow was titrated with the aid of a closed-loop system to generate and maintain a CBF of 25% of the baseline CBF, measured in the left anterior descending coronary artery.^20
Six male domestic pigs (38.2 to 43.3 kg) were fasted overnight, sedated with ketamine hydrochloride (30 mg/kg intramuscular), and anesthetized with propofol (2 mg/kg through an ear vein). The trachea was intubated with a size-7.5 orotracheal tube and positive pressure ventilation initiated with 50% oxygen using a volume-controlled ventilator (840 Ventilator System, Nellcor Puritan Bennett, Boulder, Colo.) set to deliver 10 mL/kg at a peak flow of 60 L/min with an FiO2 of 0.5. The respiratory rate was adjusted to attain an end-tidal PCO2 (PETCO2) between 38 and 42 mmHg. Anesthesia was maintained using isoflurane (1.75%-2.75%). Rectal temperature was maintained between 37.5 and 38.5° C. with a servo-controlled water-circulated blanket (Blanketrol II, Cincinnati Sub-Zero, Cincinnati, Ohio). The ECG signal was obtained during spontaneous circulation through leads placed on the right forelimb, left forelimb, and left hindlimb. During VF, the ECG signal was obtained through pads from a biphasic waveform defibrillator (E series; ZOLL Medical Corporation, Chelmsford, Mass.) placed on the shaved sides of the chest along the midaxillary line.
A 7 F fluid-filled catheter was advanced from the right femoral artery into the descending thoracic aorta to measure aortic pressure. A 7 F thermodilution balloon-tipped catheter was advanced through the right external jugular vein into the pulmonary artery to measure cardiac output, right atrial pressure, pulmonary artery pressure, and pulmonary artery occlusive pressure (Swan-Ganz, Edwards Lifesciences, Irvine, Calif.). […]

In series [2] the test system is closed-chest swine model of VF. The series is classed as in vivo. As to the method:
We used a swine model of VF and conventional closed-chest resuscitation with survival up to 240 minutes. We conducted 16 experiments in which 8 were randomized to receive EMPA and 8 to vehicle control given intravenously immediately before starting CPR.
Domestic pigs (35.2 to 39.6 kg) were sedated, anesthetized, intubated, and started on mechanical ventilation as for the experiments in the open-chest model. For blood sampling and measuring aortic pressures, a 6F dual lumen pressure monitoring catheter (Langston, Vascular Solutions) was advanced through the right femoral artery past the bifurcation and into the descending thoracic aorta. For measuring left ventricular pressures, a 7F fluid-filled pigtail catheter (Langston, Vascular Solutions) was advanced through the surgically exposed right carotid artery and into the left ventricle. For blood sampling and for measuring core temperature, cardiac output by thermodilution technique, and pressures in the right atrium and pulmonary artery, a balloon-tipped pulmonary artery catheter (Swan-Ganz, Edwards Lifesciences, Irvine, Calif.) was advanced through the right external jugular vein and into the pulmonary artery. For induction of VF, a 5F pacing electrode was advanced through the right internal jugular vein into the right ventricle (FIG. 4).
VF was induced by delivering an alternating current (1-10 mA) to the right ventricular endocardium and left untreated without ventilation for 10 minutes. At the end of untreated VF, chest compressions were started using a mechanical compressor (Michigan Thumper Model 1007, Grand Rapids, Mich.) set to compress the chest at a rate of 100 per minute with its depth titrated attempting to generate an aortic diastolic pressure of at least 25 mmHg but without exceeding a maximum compression depth of 5 cm. Ventilation with 100% oxygen was delivered using a 350-ml self-inflating pediatric bag (Lifesaver Resuscitation Bags; Teleflex Medical, N.C.). Compressions and ventilations were delivered sequentially as recommended when the airway is un-protected. Accordingly, 30 chest compressions were delivered in 18 seconds followed by 2 breaths during a 6 second compression pause. Electrical shocks were delivered through the chest pads using a biphasic waveform defibrillator (R series Zoll Corp.) with the energy set at 200-J. Shocks were delivered guided by the likelihood of successful resuscitation using an algorithm developed by us based on real-time monitoring of the VF waveform in the frequency domain known as amplitude spectral area (AMSA).^24 Epinephrine (1 mg-bolus dose; 1 ml) was delivered through the pulmonary artery catheter into the right atrium and the line flushed with 10 ml of 0.9% NaCl. The timing of epinephrine delivery was based on an AMSA advisory criterion avoiding delivery if AMSA predicted a high likelihood of shock success within the ensuing 120 seconds, with a minimum interval between doses of 240 seconds. The purpose of AMSA advisory criteria was to minimize administration of epinephrine—given its known adverse post-resuscitation effects—if not required for successful resuscitation.^25,26 Animals that achieved ROSC received 0.9% NaCl (30 ml/kg) at the maximum pump rate (999 ml/h) and were monitored for up to 240 minutes, euthanizing those that survived by delivering a right atrial bolus of KCl (150 mg/kg).
For these experiments we used a higher EMPA dose corresponding to 0.5 mg/kg.
For this purpose, a stock solution was prepared by dissolving 90.2 mg of EMPA (Sigma, St. Louis, Mo., MW 450.92) in 8 ml of 100% DMSO to obtain a […] solution. This stock solution was diluted in saline to 5 mM. Given an estimated blood volume of 2.5 L for a 40-kg pig, 44.64 μmoles (i.e., 8.9 ml of the 5 mM solution) of EMPA was given in bolus dose into the right atrium immediately before starting CPR to attain the target blood concentration of 17.8 μM (0.8026 mg/di) after initial blood volume distribution. […]

The subject of series [3] is patients with type 2 diabetes. The conditions noted are these: cited from earlier work.
In a further series the test system is isolated mice hearts. The conditions noted are these: cited from earlier work.
The test system of series [4] is obese rats with diastolic dysfunction. To be noted: cited from earlier work.
For series [5] the following is noted: 25 mg oral dose in humans; cited from earlier work.
The subject of the next series is isolated cardiomyocytes. To be noted: cited from earlier work.
In another series the test system is CaMKII. To be noted: 24 hours exposure; cited from earlier work.
The conditions of series [6]: dose 0.5 mg/kg; cited from earlier work.
The subject of series [7] is swine model of cardiac arrest. The conditions noted are these: given immediately before starting CPR; cited from earlier work.
The next series relates to ischemia-reperfusion. The conditions noted are these: rat and swine models of ischemia-reperfusion; cited from earlier work.
Series [8] relates to coronary occlusion and reperfusion. The conditions noted are these: rat, in vivo; cited from earlier work.
For series [9] the test system is unchanged. To be noted: oral, 24 hours and 2 hours before coronary occlusion; cited from earlier work.
Setting [10] is: vs control, statistically significant.

Turning to `OC[C@H]1O[C@@H](c2ccc(Cl)c(Cc3ccc(O[C@H]4CCOC4)cc3)c2)[C@H](O)[C@@H](O)[C@@H]1O` [EMPA, Empagliflozin], the “myocardial changes during the resuscitation effort” value in series [1] (between EMPA and control groups) is on record as “no myocardial differences”. Moreover, in [1] (developed in control animals), the “increases in Tau, the relaxation time constant, post-resuscitation” value is “not observed” and the “progressive left ventricular wall thickening post-resuscitation” value is “not observed”. Moreover, the “cumulative energy required to terminate VF” value in series [1] (same in both groups) is given as 60 J. In series [1] (vs control), the “NE doses received post-resuscitation” value is on record as “lower” and the PETCO2 post-resuscitation entry is given as “markedly higher”. The heart rate post-resuscitation result in series [1] (vs control, n=3 per group, not statistically significant) is “lower”. Moreover, the MAP post-resuscitation result in series [1] (vs control, n=3 per group, statistically significant) is “statistically significant higher”. In addition, the “coronary vascular resistance post-resuscitation” value in series [1] (vs control, did not achieve statistical significance) is reported as “slightly lower”. Further, in series [1] (setting [10]), the “LAD blood flow post-resuscitation” value is “substantially higher”, the cardiac index post-resuscitation entry is “markedly higher”, the “left ventricular stroke work index post-resuscitation” value is given as “higher” and the “stroke volume index post-resuscitation” value is listed as “higher”. The “end-tidal PCO2 during CPR” value in [2] (0.5 mg/kg, n=8, comparator 29±7) came out at 36±7 mmHg. In [2] (vs comparator), the “left ventricular stroke work index post-resuscitation” value is “higher”, the “mean arterial pressure post-resuscitation” value was “lower”, the “stroke volume index post-resuscitation” value is listed as “higher” and the “systemic vascular resistance post-resuscitation” value is “lower”. Further, the cardiac index post-resuscitation entry in series [2] (vs comparator, average of 120, 180, 240 min) is “higher”. Besides, in series [2] (vs comparator, not shown), the “pulmonary vascular resistance post-resuscitation” value is listed as “lower”. Moreover, in [3], the “reduction in the relative risk of cardiovascular death” value is reported as 38% and the “risk reduction of hospitalization for heart failure” value was 35%. In addition, in the series on isolated mice hearts (EMPA 1 μM, 18 minutes prior to ischemia and 25 minutes of ischemia), the “onset of myocardial contracture during ischemia” value was “delayed”. The infarct size result with isolated mice hearts (global ischemia and reperfusion) was “reduced”. For the same compound, the isovolumic relaxation time entry in series [4] (after 30 minutes) is “improved”. Besides, in series [4] (single EMPA injection, obese rats), the blood concentration was 8.68 µM. Besides, in series [5], the blood concentration is 0.69 µM. In addition, the “cytosolic sodium and cytosolic calcium” value in the series on isolated cardiomyocytes was “reductions”. The CaMKII activity result in the series on CaMKII is recorded as “reduction”. Moreover, the adverse effect entry in series [6] is “had not shown adverse effect”.
As for `CC(C)c1ccc(C(=O)NC(=N)N)cc1S(C)(=O)=O` [cariporide], the “myocardial wall thickening and reduction in left ventricular cavity size” value in [7] was “significant amelioration”.
In the case of `Cc1ccc([C@@H]2O[C@H](CO)[C@@H](O)[C@H](O)[C@H]2O)cc1Cc1ccc(-c2ccc(F)cc2)s1` [canagliflozin], the “reductions in infarct size” value with ischemia-reperfusion is reported as “up to 60%”. In series [8], the infarct size entry was “reduced”; the “systolic and diastolic dysfunction” value is “ameliorated”. For the same compound, the “stroke volume and cardiac output after reperfusion” value in [9] is listed as “better”.
